Patent US20240368104A1, “Novel Dialkoxynaphtho[2,3-C]Furan-1(3H)-One Derivatives and Pharmaceutical Composition For Preventing or Treating Respiratory Disease or SARS-COV-2 Infection Disease, Comprising Same” (priority 2021, published 2024)
Like-named read-outs stand apart in the source and are kept apart here.

Experiments:
SARS-COV-2 = assay: microbe, parasite or virus in culture; type: cell-based; parameters: SI (Selectivity Index, CC50/IC50): unit not given here; conditions: for SI (Selectivity Index, CC50/IC50): SARS-COV-2, values >50 assumed to be 50; for IC50: read-out: SARS-COV-2 inhibition (IC50)
[1] = system: SFTS virus (KADGH; NCCP43261); assay: microbe, parasite or virus in culture; type: cell-based, severe fever with thrombocytopenia syndrome virus; parameters: SI (Selectivity Index, CC50/IC50): unit not given here; conditions: for SI (Selectivity Index, CC50/IC50): SFTS virus; for IC50: Severe fever with thrombocytopenia syndrome virus, Vero, 24 h, read-out: SFTSV inhibition (IC50, μM)
in vitro [2] = conditions: African green monkey
in vitro [3] = conditions: African green monkey; remark: listed apart in the source
[4] = system: IL-4 secretion in RBL-2H3 cells; assay: Inhibition of IL-4 secretion in RBL-2H3 cell line (A23187 induced, ELISA); type: cell-based; conditions: Rattus norvegicus
Description: The RBL-2H3 cell line was purchased from the American Type Culture Collection (ATCC #CRL-2256). The cells were diluted at a concentration of 1×10^6 cells/ml in RPMI medium containing 15% fetal bovine serum (FBS) and antibiotics (penicillin at 100 U/mL, streptomycin at 100 μg/mL), distributed at 200 μl/well in a 48 well plate, and cultured in a 37° C., 5% CO2 incubator for 24 hours. In 24 hours later, the cells were pre-treated one hour before with a test drug and AS1517499 (STAT6 inhibitor) as a control drug, and treated with 1 uM of A23187 for six hours to induce an immune response, after which a group not containing the drug was used as a control. In order to measure a secretion level of cytokine IL-4, the medium was collected from the well plate and centrifuged at 125×g for five minutes to remove a residue, and 100 μl of the medium was used to measure an amount of IL-4 secreted from the cells by using IL-4 enzyme-linked immunosorbent assay (ELISA, Komabiotech). A degree of inhibition of cell secretion by the drug was calculated using [Equation 1] below.
First of all, 288 kinds of materials were treated at a single concentration of 10 uM so as to select 60 kinds of materials which inhibit secretion of IL-4 by 75% or more (FIG. 19).
After that, a repeated experiment and a two-concentration (10, 3 uM) test were performed using the selected 60 kinds of materials so as to select the final eight kinds, and the IC50 value was calculated and shown in Table 3.

[5] = system: IL-4 secretion in mouse splenocytes; assay: Inhibition of IL-4 secretion in mouse splenocytes (Concanavalin A, ELISA); type: cell-based, Balb/c mice; conditions: for inhibition at 1 µM: Splenocyte, read-out: IL-4 Secretion inhibitory ability (%); for IL-4 pg/ml: Concanavalin A 5 μg/mL, 48 hours
Description: (§1) The isolated splenocytes were diluted at a concentration of 5×10^6 cells/mL in RPMI medium containing 10% fetal bovine serum (FBS) and antibiotics (penicillin at 100 U/mL, streptomycin at 100 μg/mL), distributed at 500 μl/well in a 24 well plate, and cultured in a 37° C., 5% CO2 incubator for 48 hours. When splenocytes were distributed, an immune reaction was induced by treating with 5 μg/mL of Concanavalin A, and at this time, the splenocytes were treated with the materials selected in Experimental Example 3 at a concentration of 1 uM. First, in order to measure Th2 cytokines, the medium was collected from the 24-well plate, and only the supernatant was separated through centrifugation at 800×g for five minutes, after which 100 μl of the supernatant per well was used in an enzyme-linked immunosorbent assay (ELISA, Komabiotech) experiment so as to measure a degree of secretion of Th2 cytokines IL-4 and IL-5. A degree of inhibition against secretion of cytokines by the test material was calculated using [Equation 2] below, and the measurement results are shown in Table 7.

[6] = system: IL-5 secretion in mouse splenocytes; assay: Inhibition of IL-5 secretion in mouse splenocytes (Concanavalin A, ELISA); type: cell-based, Balb/c mice; conditions: for inhibition at 1 µM: Splenocyte, read-out: IL-5 Secretion inhibitory ability (%); for IL-5 pg/ml: Concanavalin A 5 μg/mL, 48 hours
Description: as §1

[7] = system: Balb/c mouse asthma model; assay: Balb/c mouse asthma model (ovalbumin), BALF IgE, IL-4, IL-5 and inflammatory cells; type: in vivo, Balb/c mice
Description: In detail, five-week-old Balb/c mice were purchased and acclimated for one week, after which the mice were sensitized systemically by intraperitoneal injection with 0.1% ovalbumin (OVA 1 mg/mL, Al(OH)3 20 mg/mL) at 100 μl/mouse on days 0 and 14 from a week after the acclimation. From a week (day 21) after a final systemic sensitization, the compound of Example 73 was orally administered everyday at 10 mg/kg to mice for ten days, and dexamethasone was intraperitoneally administered at 1 mg/kg as a positive control group. In one hour later, 0.2% ovalbumin solution was sprayed with a nebulizer (PARIBoy SX, GmbH, Germany) so as to be inhaled for one hour. In five hours after the final sensitization (day 30), an autopsy was performed, and 1 mL of phosphate buffer solution was flowed through a tracheotomy to collect a bronchoalveolar lavage fluid (BALF). The collected BALF was centrifuged at 3000 rpm for ten minutes, and the supernatant was used to measure bioactive materials (IL-4, IL-5), and pellets were used to measure the number of inflammatory cells. In addition, an IgE concentration in the isolated BALF was measured using IgE enzyme-linked immunosorbent assay (ELISA, Komabiotech), and IL-4 and IL-5 were measured using their respective enzyme-linked immunosorbent assay (ELISA, IL-4: Enzo #ADI-900-043, IL-5: R&D system #M5000).
The results are shown in Table 8 and FIG. 22, and each secretion inhibitory activity was calculated in the same manner as in [Equation 2] of Experimental Example 4.
In addition, the BALF pellets were re-dissolved by adding 0.5 mL of phosphate buffer solution, and then 0.1 mL for each thereof was added to a 96-well plate and centrifuged at 800 rpm for five minutes to attach cells to the bottom (three wells per sample). Then, the cells were stained with Diff Quik staining solution (Sysmex) and the number of cells was measured with […].
The results were shown in FIG. 21, the SPSS program was used for statistical processing, the Levene test was performed for equal-variance test, and the significance test was performed through one-way ANOVA.

dengue virus = assay: Inhibitory effect against dengue virus in Vero E6 cells; type: cell-based
Description: On the next day, a compound having a concentration of 0.0625 micro M was prepared from a compound having a concentration of 3 micro M and treated to Vero E6 cells, and then the cells treated with the compound were immediately infected with dengue virus (0.01 MOI) and cultured at 37° C. for five days.

Zika virus = assay: Inhibitory effect against Zika virus in Vero cells; type: cell-based
[8] = Severe acute respiratory syndrome coronavirus 2, Vero, 24 h
[9] = Severe acute respiratory syndrome coronavirus 2, Vero cells, 24 hours infection
[10] = RBL-2H3 cells, 1 uM A23187, read-out: IL-4 secretion inhibition IC50
[11] = mouse splenocytes, compound 1 μM
[12] = Example 73 10 mg/kg oral, dexamethasone 1 mg/kg intraperitoneal
[13] = Mean ± S.D., n = 5, Example 73 10 mg/kg oral, dexamethasone 1 mg/kg intraperitoneal, ten days

Row | Compound | SI (Selectivity Index, CC50/IC50) (SARS-COV-2) | SI (Selectivity Index, CC50/IC50) [1] | IC50 [1] [µM] | CC50 (in vitro [2]) [µM] | CC50 at 24 h (in vitro [3]) [µM] | IC50 (SARS-COV-2; [9]) [µM] | IC50 [4, 10] [µM] | inhibition at 1 µM [5, 11] [%] | IL-4 pg/ml [5, 11] [pg/mL] | inhibition at 1 µM [6, 11] [%] | IL-5 pg/ml [6, 11] [pg/mL] | further results
1 | COc1cc2cc3c(c(-c4ccc(N(C)c5cccc(C#N)c5)nc4)c2cc1OC)C(=O)OC3.Cl [Example 237, 3-((5-(6,7-dimethoxy-3-oxo-1,3-dihydronaphtho[2,3-c]furan-4-yl)pyridin-2-yl)(methyl)amino)benzonitrile] | 61.98 | 1277 | 0.794 | > 50 | 1020 |  |  |  |  |  |  | IC50 (SARS-COV-2; [8]): 0.81 µM
2 | CCN(CC)CCCC(C)Nc1ccnc2cc(Cl)ccc12 (stereo not shown) [Chloroquine] |  |  | 21.8 |  |  |  |  |  |  |  |  | CC50 (in vitro [3]): 104 µM
3 | NC(=O)c1ncn([C@@H]2O[C@H](CO)[C@@H](O)[C@H]2O)n1 [Ribavirin] |  |  | 64.8 |  | 1270 |  |  |  |  |  |  | 
4 | COc1cc2cc3c(c(-c4ccc(N(C)C5Cc6ccccc6C5)nc4)c2cc1OC)C(=O)OC3 [Example 194, 9-(6-((2,3-dihydro-1H-indan-2-yl)(methyl)amino)pyridin-3-yl)-6,7-dimethoxynaphtho[2,3-c]furan-1(3H)-one] | 33.63 | 48785 | 0.965 | > 50 | 47100 | 1.49 |  |  |  |  |  | 
5 | COc1cc2cc3c(c(-c4cnc(N5CCCC(C)C5)nc4)c2cc1OC)C(=O)OC3 (stereo not shown) [Example 59, 6,7-dimethoxy-9-(2-(3-methylpiperidin-1-yl)pyrimidin-5-yl)naphtho[2,3-c]furan-1(3H)-one] | 20.79 |  |  | > 50 |  | 2.4 | 2.35 | 79 | 71.6 | 44.3 | 51.9 | 
6 | CCCCN(CCCC)c1ncc(-c2c3c(cc4cc(OC)c(OC)cc24)COC3=O)cn1 [Example 73, 9-(2-(dibutylamino)pyrimidin-5-yl)-6,7-dimethoxynaphtho[2,3-c]furan-1(3H)-one] | 6.53 |  |  | > 50 |  | 7.66 | 3.19 | 74.7 | 86.3 | 20.4 | 74.1 | number of eosinophils in BALF ([7]; 10 mg/kg oral, ten days): significantly reduced; BALF IL-4 Secretion inhibitory ability % [7, 12]: (51.3%); BALF IL-5 Secretion inhibitory ability % [7, 12]: (33.7%); BALF IgE Secretion inhibitory ability % [7, 12]: (24.3%); BALF IL-4 pg/ml [7, 13]: 64.9 ± 35.025 pg/mL; BALF IL-5 pg/ml [7, 13]: 20.7 ± 13.46 pg/mL; BALF IgE [7, 13]: 10.5 ± 3.282 ng/mL
7 | COc1cc2cc3c(c(-c4cc5c(cc4OC(=O)c4ccccn4)OCO5)c2cc1OC)C(=O)OC3 [Example 169, 6-(6,7-dimethoxy-3-oxo-1,3-dihydronaphtho[2,3-c]furan-4-yl)benzo[d][1,3]dioxol-5-yl picolate] | 40.73 |  |  | > 50 |  | 1.23 | 2.34 | 86.3 | 46.7 | 27.9 | 67.1 | 
8 | COc1cc2cc3c(c(-c4cnc(N(CC(C)C)CC(C)C)nc4)c2cc1OC)C(=O)OC3.Cl [Example 86, 9-(2-(diisobutylamino)pyrimidin-5-yl)-6,7-dimethoxynaphtho[2,3-c]furan-1(3H)-one hydrochloride] | 0.75 |  |  | 19.2 |  |  |  |  | 96.0 |  | 71.0 | IC50 (SARS-COV-2; [8]): 25.7 µM; IC50 ([4]; RBL-2H3, read-out: IL-4 secretion inhibition IC50 (μM)): 2.21 µM; inhibition at 1 µM ([5]; Mus musculus): 71.8%; inhibition at 1 µM ([6]; Mus musculus): 23.7%
9 | COc1cc2cc3c(c(-c4ccc5c(c4)OC(F)(F)O5)c2cc1OC)C(=O)OC3 [Example 221, 9-(2,2-difluorobenzo[d][1,3]dioxol-5-yl)-6,7-dimethoxynaphtho[2,3-c]furan-1(3H)-one] | 275.32 | 11472 | 0.04 | > 50 | 457 | 0.18 |  |  |  |  |  | protection from cytopathic effects induced by dengue virus (dengue virus): protects from cytopathic effects; EC50 (dengue virus; Dengue virus, Vero C1008, 120 h, 0.01 MOI, five days, read-out: Dengue virus Inhibitory ability (EC50)): 0.079 µM; protection from cytopathic effects induced by Zika virus (Zika virus): protects from cytopathic effects; EC50 (Zika virus; Zika virus, 120 h, 0.02 MOI, five days, read-out: Zika virus Inhibitory ability (EC50)): 0.484 µM
10 | CCC(C)CN(C)c1ncc(-c2c3c(cc4cc(OC)c(OC)cc24)COC3=O)cn1 (stereo not shown) [Example 65, 6,7-dimethoxy-9-(2-(methyl(2-methylbutyl)amino)pyrimidin-5-yl)naphtho[2,3-c]furan-1(3H)-one] | 19.30 |  |  | > 50 |  | 2.59 | 2.18 | 99.5 | 1.5 | 73 | 25.2 | 
